Laboratory results reported in PubChem BioAssay (NCI).
Several values for one entry are separate records, joined by “and”; a condition that tells them apart may be missing. Equal entries are not always repeated.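 Step 1: Grow cells in 96-well plates. Step 2: Expose to compound for 48 hours at 5 concentrations. Step 3: Interpolate endpoints linearly; if unreached, use highest concentration. GI50 = concentration required for 50% inhibition of growth. TGI marks complete inhibition of growth.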

How the values were obtained:
Assay in all cases: NCI-60 cell line screen, 48 h
NCI/ADR-RES ovarian = test system: NCI/ADR-RES ovarian
COLO 205 colon = test system: COLO 205 colon
CAKI-1 renal = test system: CAKI-1 renal
SNB-19 CNS = test system: SNB-19 CNS
U251 CNS = test system: U251 CNS
TK-10 renal = test system: TK-10 renal
HT29 colon = test system: HT29 colon
HL-60(TB) leukemia = test system: HL-60(TB) leukemia
RXF 393 renal = test system: RXF 393 renal
HOP-62 NSCLC = test system: HOP-62 NSCLC

Compound	TGI (NCI/ADR-RES ovarian)	TGI (COLO 205 colon)	TGI (CAKI-1 renal)	TGI (SNB-19 CNS)	TGI (U251 CNS)	TGI (TK-10 renal)	TGI (HT29 colon)	TGI (HL-60(TB) leukemia)	TGI (RXF 393 renal)	GI50 (NCI/ADR-RES ovarian)	GI50 (COLO 205 colon)	GI50 (CAKI-1 renal)	GI50 (SNB-19 CNS)	GI50 (U251 CNS)	GI50 (TK-10 renal)	GI50 (HT29 colon)	GI50 (RXF 393 renal)	GI50 (HOP-62 NSCLC)	TGI (HOP-62 NSCLC)	GI50 (HL-60(TB) leukemia)
OCC1NC(COC2OC(CO)C(O)C(O)C2O)C(O)C(O)C1O (configuration not stated)	> 100 µM	> 100 µM	> 100 µM	> 100 µM	> 100 µM	> 100 µM	> 100 µM	> 100 µM	> 100 µM											
CCCCCC/C=C/C#CCCCCCCCC(=O)O	> 100 µM	> 100 µM	> 100 µM	> 100 µM	> 100 µM	> 100 µM	> 100 µM	> 100 µM												
CN1CCN(CCCOc2cccc3nc(Nc4cc(Cl)cc(Cl)c4)ccc23)CC1	3.29 µM	3.13 µM	11.7 µM	3.48 µM	3.1 µM	3.17 µM	2.78 µM		3.22 µM	1.72 µM	1.63 µM	2.97 µM	1.89 µM	1.72 µM	1.75 µM	1.41 µM	1.67 µM	1.37 µM	2.81 µM	
Cc1ccc2c(c1)[n+](=O)c(C(=O)c1cccs1)c(C(F)(F)F)n2[O-]	10.3 µM and 10.1 µM	7.68 µM and 10.9 µM	3.43 µM and 4.07 µM	11.2 µM and 17.8 µM	10.1 µM and 14.3 µM	3.22 µM	50 µM	33.7 µM and 57.3 µM		1.14 µM and 0.524 µM	1.47 µM and 0.842 µM	0.856 µM and 0.395 µM	2.24 µM and 3.91 µM	1.6 µM and 0.906 µM	0.718 µM	2.76 µM		2.39 µM and 0.689 µM		1.5 µM and 0.713 µM
CC(=O)N[C@H](C)[C@@H](O)[C@@H](C)[C@@H]1OC(=O)/C=C/C=C(C)\C=C\[C@]2(C)C[C@@H](NS(C)(=O)=O)C=C[C@@H]2/C=C(C)/C=C/[C@H]1C	> 43.5 µM	> 43.5 µM		> 43.5 µM	> 43.5 µM	> 43.5 µM	> 43.5 µM	> 43.5 µM	31.1 µM	0.235 µM and 0.127 µM	0.00692 µM and 0.0199 µM		0.039 µM and 0.0228 µM	0.00368 µM and 0.00435 µM	0.045 µM and 0.276 µM	0.00459 µM and 0.00435 µM	0.00352 µM and 0.00846 µM	0.0103 µM and 0.0205 µM	> 43.5 µM	0.00579 µM and 0.0124 µM
C=C1CCC2CC1C(C(=O)c1c[nH]c3ccccc13)=NC2(C)C (configuration not stated)	> 100 µM	> 100 µM	> 100 µM	> 100 µM	> 100 µM		> 100 µM	> 100 µM											> 100 µM	
Nc1nc(N)c2c(n1)NC(c1sc(Cl)nc1Cl)CC(c1ccccc1)=N2 (configuration not stated)	12.4 µM	15.4 µM	19.6 µM	17.8 µM		24.1 µM		8.22 µM	9.5 µM	3.13 µM	4.18 µM	3.28 µM	5.15 µM		11.5 µM		2.48 µM	3.72 µM	18 µM	2.04 µM
CCn1cnc(C[C@H](NC(=O)[C@H](CCCCNC(=O)Nc2cc(C(F)(F)F)cc(C(F)(F)F)c2)NC(=O)Nc2cc(C(F)(F)F)cc(C(F)(F)F)c2)C(=O)OC)c1	> 10 µM	> 10 µM	> 10 µM	> 10 µM	> 10 µM	> 10 µM	> 10 µM		> 10 µM	> 10 µM	> 10 µM	> 10 µM	5.1 µM	3.8 µM	7.46 µM	3.97 µM	4.24 µM	9.32 µM	> 10 µM	
